# From ChEMBL document CHEMBL4665675 (J Med Chem, 2020)
# Where a SMILES comes first, the peptide text is derived from it. [ ]: non-standard residue; d: D form. The star is where a group is joined. Cholesteryloxycarbonyl = CC(C)CCC[C@@H](C)[C@H]1CC[C@H]2[C@@H]3CC=C4C[C@@H](OC(=O)*)CC[C@]4(C)[C@H]3CC[C@]12C; PEG3 = NCCOCCOCCOCCC(=O)O; Aib = CC(C)(N)C(=O)O; βAla = NCCC(=O)O
# Tests used:
# NALM-6 [1] = assay: Antiproliferative activity against human Nalm-6 cells incubated for 24 hrs by cell counting based method; assay type: functional; settings: NALM-6, 24 h
# BJAB [2] = assay: Antiproliferative activity against human BJAB cells incubated for 24 hrs by cell counting based method; assay type: functional
# Rattus norvegicus = species on record: Rattus norvegicus; assay: Inhibition of [3H]colchicine binding to rat brain tubulin at 25 uM relative to control
# [3] = Inhibition of DNA topoisomerase2 (unknown origin); design: species or system Homo sapiens
# HEK293 [4] = assay: Cytotoxicity against HEK293 cells; assay type: cell-based; settings: Homo sapiens
# A549 [5] = assay: Cytotoxicity against human A549 cells by MTT assay; assay type: functional, cell-based
# Bos taurus = species on record: Bos taurus; assay: Inhibition of [3H]colchicine binding to bovine brain tubulin at 5 uM incubated for 10 mins by DEAE-cellulose filter method relative to control
# L1210 = assay: Cytotoxicity against mouse L1210 cells incubated for 24 hrs; assay type: functional, cell-based; settings: L1210, 24 h
# Jurkat = assay: Cytotoxicity against human Jurkat cells; assay type: functional, cell-based
# HBL-100 = assay: Cytotoxicity against human HBL100 cells; assay type: functional, cell-based
# K562 = assay: Cytotoxicity against human K562 cells; assay type: functional, cell-based
# BJAB [6] = assay: Cytotoxicity against human BJAB cells; assay type: functional, cell-based
# HaCaT = assay: Cytotoxicity against human HaCaT cells; assay type: functional, cell-based
# SK-BR-3 [7] = assay: Cytotoxicity against human SK-BR-3 cells assessed as reduction in cell viability incubated for 72 hrs by flow cytometry; assay type: functional, cell-based; settings: SK-BR-3, 72 h
# SK-BR-3 [8] = assay: Cytotoxicity against human SK-BR-3 cells assessed as reduction in cell viability incubated for 72 hrs in presence of trastuzumab-iCME by flow cytometry; assay type: functional, cell-based; settings: SK-BR-3, 72 h
# NALM-6 [9] = assay: Induction of apoptosis in human Nalm-6 cells at 5 nM incubated for 72 hrs by flow cytometric method relative to control; assay type: functional
# MCF7 = assay: Induction of apoptosis in human MCF7 cells at 3 nM incubated for 72 hrs by flow cytometric method; assay type: functional
# BJAB [10] = assay: Induction of apoptosis in human BJAB cells at 5 nM incubated for 72 hrs by flow cytometric method relative to control; assay type: functional
# [11] = Antiproliferative activity against human KB-8511 cells incubated for 96 hrs by spectrophotometric method; assay type: functional, cell-based; settings: KB-ChR-8-5-11, 96 h
# P388 = assay: Antiproliferative activity against mouse P388 cells incubated for 72 hrs by Coulter counter method; assay type: functional, cell-based; settings: P388, 72 h
# HEK293 [12] = assay: Cytotoxicity against HEK293 cells incubated for 48 hrs by MTT assay; assay type: cell-based; settings: Homo sapiens, HEK293, 48 h
# [13] = Cytotoxicity against human HGF-1 cells incubated for 48 hrs by MTT assay; assay type: cell-based; settings: HGF1, 48 h
# [14] = Cytotoxicity against human BHP-1 cells incubated for 48 hrs by MTT assay; assay type: cell-based; settings: BHP1, 48 h
# HeLa = assay: Cytotoxicity against human HeLa cells after 24 to 72 hrs by Cell Titer Blue assay; assay type: cell-based
# KB 3-1 = assay: Antiproliferative activity against human KB-31 cells incubated for 96 hrs by spectrophotometric method; assay type: functional, cell-based; settings: KB 3-1, 96 h
# PC-3 = assay: Cytotoxicity against human PC-3 cells incubated for 48 hrs by MTT assay; assay type: functional, cell-based; settings: PC-3, 48 h
# BXPC-3 = assay: Cytotoxicity against human BxPC-3 cells incubated for 48 hrs by MTT assay; assay type: functional, cell-based; settings: BXPC-3, 48 h
# HT-29 = assay: Cytotoxicity against human HT-29 cells incubated for 48 hrs by MTT assay; assay type: functional, cell-based; settings: HT-29, 48 h
# MIA PaCa-2 = assay: Cytotoxicity against human Mia PaCa-2 cells incubated for 48 hrs by MTT assay; assay type: functional, cell-based; settings: MIA PaCa-2, 48 h
# [15] = Inhibition of porcine tubulin polymerization by UV/visible spectrophotometry; design: species or system Sus scrofa
# A549 [16] = assay: Cytotoxicity against human A549 cells incubated for 48 hrs by MTT assay; assay type: functional, cell-based; settings: A549, 48 h
structure (smiles),measurement,setting,value
COc1cc2c(c(OC)c1OC)C1=C(C=C(O)C(=O)CC1)CO[C@@H]2C,IC50,NALM-6 [1],1000 nM
same,IC50,BJAB [2],1000 nM
COc1cc2c(c(OC)c1OC)-c1cccc(=O)cc1[C@@H](NC(C)=O)CC2,inhibition,Rattus norvegicus,87%
CSc1ccc2c(cc1=O)[C@@H](NC(C)=O)CCc1cc(O)c(O)c(O)c1-2,IC50,[3],9 µM
COc1cc2c(c(OC)c1OC)-c1ccc3[nH]c(C)c(C)c3c1[C@@H](NC(C)=O)CC2,IC50,HEK293 [4],2000 nM
COc1cc2c(c(OC)c1OC)-c1ccc(OC)c(=O)cc1[C@@H](NC(=O)CCCCCCC(=O)C1C3CC4CC(C3)CC1C4)CC2 (some centres not stated),IC50,A549 [5],≤ 5 nM
COc1c2c(cc3c1-c1ccc(OC)c(=O)cc1[C@@H](NC(C)=O)CC3)OCO2,inhibition,Bos taurus,54%
same,IC50,L1210,20 nM
COc1cc2c(c(OC)c1OC)-c1ccc(OC)c(=O)cc1[C@@H](NC(=O)CCCCCC(=O)OC1C3CC4CC(C3)CC1C4)CC2 (some centres not stated),IC50,A549 [5],≤ 5 nM
CCCCCCCCCCCCCCCC(=O)OCc1cn([C@H]2CCc3cc(OC)c(OC)c(OC)c3-c3ccc(OC)c(=O)cc32)nn1,IC50,Jurkat,3.5 nM
same,IC50,HBL-100,3.5 nM
same,IC50,K562,3.5 nM
same,IC50,BJAB [6],3.5 nM
same,IC50,HaCaT,3.5 nM
CCCCCCCCCCCCCCCCCC(=O)OCc1cn([C@H]2CCc3cc(OC)c(OC)c(OC)c3-c3ccc(OC)c(=O)cc32)nn1,IC50,Jurkat,3.5 nM
same,IC50,HBL-100,3.5 nM
same,IC50,K562,3.5 nM
same,IC50,BJAB [6],3.5 nM
same,IC50,HaCaT,3.5 nM
CC(C)CCC[C@@H](C)[C@H]1CC[C@H]2[C@@H]3CC=C4C[C@@H](OC(=O)NCCC(=O)NCCC(=O)N[C@@H](CCC(=O)O)C(=O)N[C@@H](CCC(=O)O)C(=O)NCCOCCOCCOCCC(=O)NCCOCCOCCOCCC(=O)NC(C)(C)C(=O)NC(C)(C)C(=O)NC(C)(C)C(=O)NC(C)(C)C(=O)N[C@@H](Cc5c[nH]c6ccccc56)C(=O)N[C@@H](Cc5ccc(O)cc5)C(=O)N[C@@H](C)C(=O)N[C@@H](Cc5c[nH]c6ccccc56)C(=O)N[C@@H](Cc5ccc(O)cc5)C(=O)N[C@@H](C)C(=O)N[C@@H](Cc5c[nH]c6ccccc56)C(=O)N[C@@H](Cc5ccc(O)cc5)C(=O)N5CCC[C@H]5C(=O)N5CCC[C@H]5C(=O)N[C@H](C(=O)N[C@H](C(N)=O)C(C)C)C(C)C)CC[C@]4(C)[C@H]3CC[C@]12C ({Cholesteryloxycarbonyl-βAla-βAla}-EE[PEG3][PEG3][Aib][Aib][Aib][Aib]WYAWYAWYPPVV-NH2),IC50,SK-BR-3 [7],> 10 µM
same,IC50,SK-BR-3 [8],0.11 nM
C=C1Cc2cc(OC)c(OC)c(OC)c2-c2ccc(OC)c(=O)cc21,Activity,NALM-6 [9],71%
same,Activity,MCF7,62%
same,Activity,BJAB [10],48%
COc1cc2c(c(OC)c1OC)-c1ccc(OC)c(=O)cc1[C@@H](NC(C)=O)CC2 [COLCHICINE],IC50,[11],540 nM
same,IC50,P388,29 nM
same,IC50,HEK293 [12],42 nM
same,IC50,[13],42 nM
same,IC50,[14],42 nM
same,IC50,HeLa,58 nM
same,IC50,KB 3-1,9 nM
same,IC50,PC-3,42 nM
same,IC50,BXPC-3,42 nM
same,IC50,HT-29,42 nM
same,IC50,MIA PaCa-2,42 nM
same,IC50,[15],3.9 µM
same,IC50,A549 [16],42 nM
